US10717699B1, “Crotonyl alcohol cassic acid ester with antibacterial activity and a method of preparing the same” (SOUTHWEST UNIVERSITY, priority 2020, dated 2020)
In brackets after ≈: the same amount, converted by molar mass.

Tests used:
Type in all cases: cell-based
[1] = tested on: methicillin-resistant Staphylococcus aureus MRSA 18-222, 18-575; assay: MIC by microbroth dilution method, MRSA strains; conditions: for Minimum bacteriostatic concentration: 37° C., 20-22 hours
From the text: (§1) The minimal inhibitory concentration (MIC) of the compounds as determined by microbroth dilution method with gentamicin, cefazolin sodium and ceftriaxone sodium as positive control.
(§2) The experimental strains included methicillin-resistant Gram-positive bacteria: methicillin-resistant Staphylococcus aureus MRSA 18-222, 18-575; multiple drug-resistant […] bacteria: vancomycin-resistant enterococci VRE 18-80,18-94, multidrug-resistant Pseudomonas aeruginosa MDR-PA 18-1774,18-202, carbapenem-resistant Acinetobacter baumannii CR-AB 18-183,18-560. All the experimental strains were donated by Huashan Hospital affiliated to Fudan University (Institute of antibiotics, Fudan University) and used after routine identification.
(§3) Preparation of MHB medium: 20.0 g MHB medium was added to 1 L distilled water, boiled until completely dissolved, packed in conical bottles and sterilized at 121° C. for 15 min.
(§4) The experimental strain was cultured to the logarithmic growth phase: under aseptic condition, the experimental strain was inoculated into 100 mL MHB medium and incubated in a constant temperature and humidity incubator at 37° C. for 20-22 hours.
(§5) Preparation of storage solution: weigh the sample to be tested, dissolve it with 1% DMSO solution, prepare a storage solution with a concentration of 2560 μg/mL, weigh a positive reference substance, dissolve it with aseptic distilled water, and configure a storage solution with a concentration of 2560 μg/mL.
(§6) Preparation of bacterial suspension: under aseptic condition, the experimental strains cultured to logarithmic growth phase were adjusted to 0.5 MCF turbidity standard with MHB medium and diluted according to 1:10, and the bacterial suspension with concentration of 10^6 CFU/mL was prepared for standby.
(§7) Dilution of storage solution and inoculation of experimental strain: under aseptic condition, the storage solution was diluted to 256 μg/mL solution. Take a sterile 96-well plate, add 200 μL MHB medium to the 12th well, and add 100 μL MHB medium to each well. Add 100 μL of positive control solution to the first well, mix well, and suck 100 μL from it and discard. Add 100 μL of the compound sample solution to the second well, mix well, and then pipette 100 μL to the third well. After mixing, pipette 100 μL to the fourth well, and dilute to the 11th well in this way. Finally, 100 μL was pipetted from the 11th well and discarded. The 12th hole was the growth control without drugs. So far, the concentration of the positive reference substance is 128 μg/mL, the concentrations of the sample solution are 128, […], 8, 4, 2, 1, 0.5, 0.25 μg/mL respectively. Then, 10μL of the prepared bacterial suspension is added to each well, so that the final concentration of the bacterial liquid in each well is 5×10^5 CFU/mL.
(§8) Incubation: Cover the 96-well plate inoculated with the experimental strains, and incubate in a constant temperature and humidity box at 37° C. for 20-22 hours.

[2] = tested on: multidrug-resistant Pseudomonas aeruginosa MDR-PA 18-1774,18-202; assay: MIC by microbroth dilution method, MDR-PA strains; conditions: 37° C., 20-22 hours
From the text: as §1, §2, §3, §4, §5, §6, §7, §8

[3] = tested on: carbapenem-resistant Acinetobacter baumannii CR-AB 18-183,18-560; assay: MIC by microbroth dilution method, CR-AB strains; conditions: 37° C., 20-22 hours
From the text: as §1, §2, §3, §4, §5, §6, §7, §8

[4] = tested on: vancomycin-resistant enterococci VRE 18-80,18-94; assay: MIC by microbroth dilution method, VRE strains; conditions: 37° C., 20-22 hours
From the text: as §1, §2, §3, §4, §5, §6, §7, §8

drug-resistant bacteria = assay: Antibacterial activity test, summary over all experimental strains; conditions: summary of FIG. 1-6 and Table 1
From the text: as §1, §2, §3
The experimental strain was cultured to the logarithmic growth phase: under aseptic condition, the experimental strain was inoculated into 100 mL MHB medium and incubated in a constant temperature and humidity incubator at 37° C. for 20-22 hours. […]

Row | Molecule | Minimum bacteriostatic concentration ([1]; strain MRSA 18-222) [µg/mL] | Minimum bacteriostatic concentration ([1]; strain MRSA 18-575) [µg/mL] | Minimum bacteriostatic concentration ([2]; strain MDR-PA 18-174) [µg/mL] | Minimum bacteriostatic concentration ([2]; strain MDR-PA 18-202) [µg/mL] | Minimum bacteriostatic concentration ([3]; strain CR-AB 18-183) [µg/mL] | Minimum bacteriostatic concentration ([3]; strain CR-AB 18-560) [µg/mL] | Minimum bacteriostatic concentration ([4]; strain VRE 18-80) [µg/mL] | Minimum bacteriostatic concentration ([4]; strain VRE 18-94) [µg/mL] | inhibitory effect on drug-resistant bacteria (drug-resistant bacteria) | MIC ([1]; Staphylococcus aureus, drug-resistant Gram-positive bacteria MRSA, strain not given) [µg/mL]
1 | CO/N=C(\C(=O)N[C@@H]1C(=O)N2C(C(=O)O)=C(CSc3nc(=O)c(=O)[nH]n3C)CS[C@H]12)c1csc(N)n1 [Ceftriaxone sodium, ceftriaxone sodium] | >128 | >128 | 128 | 16 | >128 | >128 | 8 | >128 |  | 
2 | CC=CCO [Crotonyl alcohol, 2-butenol] | >128 | >128 | >128 | >128 | >128 | >128 | >128 | >128 | no inhibitory effect | 
3 | gentamicin | 128 | 2 | 0.0625 | 0.0625 | >128 | >128 | 0.0625 | >128 |  | 
4 | C/C=C/COC(=O)c1cc(O)c2c(c1)C(=O)c1cccc(O)c1C2=O [Crotonyl alcohol cassic acid ester, (E)-but-2-en-1-yl 4,5-dihydroxy-9,10-dioxo-9,10-dihydroanthracene-2-carboxylate] | 4 | 4 | >128 | >128 | >128 | >128 | >128 | >128 |  | 4 (≈ 11.8 µM)
5 | Cc1nnc(SCC2=C(C(=O)O)N3C(=O)[C@@H](NC(=O)Cn4cnnn4)[C@H]3SC2)s1 [Cefazolin sodium, cefazolin sodium] | >128 | >128 | 8 | 128 | >128 | >128 | 32 | >128 |  | 
6 | O=C(O)c1cc(O)c2c(c1)C(=O)c1cccc(O)c1C2=O [Cassic acid] | >128 | >128 | >128 | >128 | >128 | >128 | >128 | >128 | no inhibitory effect | 
